In the supplement of paper PMC10307832:

What was measured:
Assay in all cases: relative viability (nuclei count vs DMSO), 5 days (fraction); higher = more cells survive
[1] = compound: Cc1nc(NC(=O)N2CCC[C@H]2C(N)=O)sc1-c1ccnc(C(C)(C)C(F)(F)F)c1 [Alpelisib] + CS(=O)(=O)CCNCc1ccc(-c2ccc3ncnc(Nc4ccc(OCc5cccc(F)c5)c(Cl)c4)c3c2)o1 [Lapatinib] (partner 2 µM)
How it was run: (§1)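 One day after seeding in 1536-well plates, lung cancer cell lines were dosed by pin tool. Dosing was either single-drug or a fixed anchor-drug dose plus five library-drug doses (not always all listed) in √10 steps. After 5 days, nuclei were stained in one fix-and-stain step and counted on 4× images, and relative viability is the nuclei count of treated wells over that of vehicle wells, given as the median of duplicate plates.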

[2] = compound: COc1cccc2cc(-c3nc([C@H]4CC[C@H](C(=O)O)CC4)n4ncnc(N)c34)[nH]c12 [OSI-027] + COc1cc2c(Oc3ccc(NC(=O)C4(C(=O)Nc5ccc(F)cc5)CC4)cc3F)ccnc2cc1OCCCN1CCOCC1 [Foretinib] (partner 0.25 µM)
How it was run: as §1

[3] = compound: Cc1nc(NC(=O)N2CCC[C@H]2C(N)=O)sc1-c1ccnc(C(C)(C)C(F)(F)F)c1 [Alpelisib] + O=C(CCCCCCC(=O)Nc1ccccc1)NO [Vorinostat] (partner 1 µM)
How it was run: as §1

[4] = compound: Cc1nc(NC(=O)N2CCC[C@H]2C(N)=O)sc1-c1ccnc(C(C)(C)C(F)(F)F)c1 [Alpelisib] + Cc1nc(Nc2ncc(C(=O)Nc3c(C)cccc3Cl)s2)cc(N2CCN(CCO)CC2)n1 [Dasatinib] (partner 0.075 µM)
How it was run: as §1

Cell Line | relative viability ([1]; first compound 0.04 µM) | relative viability ([1]; first compound 0.1265 µM) | relative viability ([1]; first compound 0.4 µM) | relative viability ([1]; first compound 1.265 µM) | relative viability ([1]; first compound 4 µM) | relative viability ([2]; first compound 0.03162 µM) | relative viability ([2]; first compound 0.1 µM) | relative viability ([2]; first compound 0.3162 µM) | relative viability ([2]; first compound 1 µM) | relative viability ([3]; first compound 0.04 µM) | relative viability ([3]; first compound 0.1265 µM) | relative viability ([3]; first compound 0.4 µM) | relative viability ([3]; first compound 1.265 µM) | relative viability ([3]; first compound 4 µM) | relative viability ([4]; first compound 0.04 µM) | relative viability ([4]; first compound 0.1265 µM) | relative viability ([4]; first compound 0.4 µM) | relative viability ([4]; first compound 1.265 µM) | relative viability ([4]; first compound 4 µM) | relative viability ([2]; first compound 0.01 µM)
201T | 1.02 | 0.988 | 1.02 | 1.01 | 0.945 | 1.09 | 1.07 | 0.944 | 0.459 | 0.928 | 0.928 | 0.949 | 0.842 | 0.831 | 0.561 | 0.487 | 0.541 | 0.434 | 0.359 | –
A549 | 0.915 | 0.857 | 0.866 | 0.637 | 0.53 | 1.04 | 1.01 | 0.84 | 0.465 | – | – | – | – | – | – | – | – | – | – | 1.14
A-427 | 1.03 | 0.914 | 0.967 | 0.926 | 1.04 | 1 | 0.89 | 0.707 | 0.423 | 0.854 | 0.861 | 0.893 | 0.827 | 0.858 | 0.618 | 0.579 | 0.704 | 0.559 | 0.638 | 0.952
ABC-1 | 0.943 | 0.988 | 1.17 | 0.706 | 0.717 | 0.996 | 0.904 | 0.652 | 0.567 | 1.15 | 0.602 | 0.905 | 0.869 | 0.692 | 0.637 | 0.495 | 0.823 | 0.484 | 0.386 | 1.13
BEN | 0.715 | 0.618 | 0.88 | 0.688 | 0.708 | 0.617 | 0.371 | 0.3 | 0.258 | 0.588 | 0.544 | 0.715 | 0.578 | 0.584 | 0.318 | 0.23 | 0.38 | 0.333 | 0.29 | 0.475
CAL-12T | 0.678 | – | 0.658 | – | 0.496 | 1.22 | 1.14 | 1.13 | 0.488 | 0.755 | 0.783 | 0.948 | 0.468 | 0.64 | 0.34 | 0.275 | 0.483 | 0.27 | 0.232 | 1.16
Calu-6 | 1.1 | 1.09 | 1.12 | 0.996 | 0.952 | 0.936 | 0.837 | 0.784 | 0.593 | – | – | – | – | – | – | – | – | – | – | 0.989
ChaGo-K-1 | – | – | – | – | – | 0.854 | 0.907 | 0.8 | 0.504 | 0.698 | 0.759 | 0.825 | 0.573 | 0.564 | 0.546 | 0.592 | 0.547 | 0.487 | 0.452 | 0.977
EBC-1 | 0.21 | 0.184 | 0.211 | 0.238 | 0.232 | 0.104 | 0.1 | 0.116 | 0.124 | – | – | – | – | – | – | – | – | – | – | 0.112
HCC-44 | 1.12 | 1.02 | 1.05 | 0.877 | 0.893 | – | – | – | – | 1.1 | 1.05 | 1.11 | 1.04 | 1.18 | – | – | – | – | – | –
IA-LM | 0.977 | 0.802 | 0.842 | 0.708 | 0.74 | 0.992 | 0.729 | 0.807 | 0.136 | 0.882 | – | 1.32 | 0.92 | 0.867 | – | – | – | – | – | 1.21
LCLC-103H | – | – | – | – | – | 0.658 | 0.786 | 0.666 | 0.334 | 0.74 | 0.744 | 0.801 | 0.669 | 0.624 | 0.45 | 0.442 | 0.468 | 0.418 | 0.359 | 0.693
NCI-H441 | – | – | – | – | – | 0.859 | 0.842 | 0.823 | 0.538 | 0.681 | 0.716 | 0.961 | 0.603 | 0.401 | 0.525 | 0.72 | 0.562 | 0.311 | 0.358 | 1.09
NCI-H522 | – | – | – | – | – | – | – | – | – | 0.79 | 0.977 | 1.04 | 0.867 | 0.742 | 0.952 | 0.772 | 0.786 | 0.709 | 0.647 | –
NCI-H1299 | 0.977 | 0.981 | 0.997 | 1.03 | 1.02 | 1.13 | 1.09 | 1.14 | 1.03 | – | – | – | – | – | – | – | – | – | – | 1.14
NCI-H1563 | 0.873 | 0.941 | 1.03 | 0.857 | 0.868 | 0.857 | 0.909 | 0.839 | 0.854 | – | – | – | – | – | 0.474 | 0.395 | 0.434 | 0.386 | 0.375 | 0.937
NCI-H1623 | – | – | – | – | – | 0.767 | 0.671 | 0.595 | 0.391 | – | – | – | – | – | 0.528 | 0.496 | 0.513 | 0.414 | 0.353 | 0.876
NCI-H1648 | – | – | – | – | – | – | – | – | – | 0.418 | 0.457 | 0.714 | 0.317 | 0.324 | – | – | – | – | – | –
NCI-H1703 | 0.949 | 0.886 | 0.789 | 0.526 | 0.678 | 0.336 | 0.291 | 0.429 | 0.324 | – | – | – | – | – | – | – | – | – | – | 0.324
NCI-H1792 | 0.923 | 0.796 | 0.863 | 0.773 | 0.532 | – | – | – | – | – | – | – | – | – | 0.723 | 0.83 | 0.736 | 0.485 | 0.336 | –
NCI-H2342 | – | – | – | – | – | 0.95 | 1.05 | 0.83 | 0.648 | 0.795 | 0.622 | 0.712 | 0.662 | 0.714 | 0.327 | 0.313 | 0.306 | 0.269 | 0.272 | 1.14
SW 900 | – | – | – | – | – | 0.644 | 0.725 | 0.873 | 0.405 | 0.497 | – | 0.587 | 0.368 | 0.461 | 0.534 | 0.58 | 0.612 | 0.578 | 0.518 | –
